The text below walks through data of ChEMBL document CHEMBL1144195, “Synthesis and antitumor activity of C-9 epimers of the tetrahydrofuran containing acetogenin 4-deoxyannoreticuin” (2008).

In brackets after ≈: the same amount, converted by molar mass.

One experiment concerns PC-3. Nature of the experiment: Cytotoxicity against human PC-3 cells after 72 hrs by MTS method. The experiment is classed as functional. The note with it: PC-3, 72 h.
Another experiment relates to Jurkat. Kind of experiment: Cytotoxicity against human Jurkat cells after 72 hrs by MTS method. The experiment is classed as functional.

Consider `CCCCCCCCCCCC[C@@H](O)[C@H]1CC[C@H]([C@H](O)CCCCC[C@@H](O)CCCCCCC2=C[C@H](C)OC2=O)O1`, for which the GI50 in the experiment with PC-3 stood at 10 mg/L (≈ 17.2 µM); in the experiment with Jurkat, 5 mg/L (≈ 8.61 µM).

Take `CCCCCCCCCCCC[C@@H](O)[C@H]1CC[C@H]([C@H](O)CCCCC[C@H](O)CCCCCCC2=C[C@H](C)OC2=O)O1`: the GI50 in the experiment on PC-3 stood at 15 mg/L (≈ 25.8 µM); in the experiment with Jurkat it was 5 mg/L (≈ 8.61 µM).
